Source: ChEMBL document CHEMBL5046278, “Synthesis and Evaluation of Novel Tetrahydronaphthyridine CXCR4 Antagonists with Improved Drug-like Profiles” (J Med Chem, 2022)
pIC50: −log10 of the molar value.

Experiments:
[1] = Metabolic stability in human liver microsomes assessed compound remaining measured after 10 mins in presence of NADPH; assay type: ADME, Microsome; details: read-out: Stability
[2] = Antagonist activity at mAChR (unknown origin) expressed in CCRF-CEM cells assessed as inhibition of calcium release by calcium flux assay; assay type: cell-based; details: Homo sapiens
Cytochrome P450 2D6 = Cytochrome P450 2D6 (Homo sapiens, UniProt P10635); experiment: Inhibition of recombinant human CYP2D6 using AMMC as substrate preincubated for 30 mins followed by substrate addition measured after 45 mins by fluorescence based assay; assay type: ADME
[3] = Permeability of compound at pH 5.5 incubated for 4 hrs by PAMPA assay; assay type: ADME; details: read-out: permeability
[4] = Metabolic stability in mouse liver microsomes assessed compound remaining measured after 10 mins in presence of NADPH; assay type: ADME, Microsome; details: read-out: Stability
[5] = Permeability of compound at pH 7.4 incubated for 4 hrs by PAMPA assay; assay type: ADME; details: read-out: permeability
[6] = Antagonist activity at human CXCR4 receptor expressed in CCRF-CEM cells assessed as inhibition of CXCL12-induced calcium release by calcium flux assay; assay type: cell-based
[7] = Metabolic stability in rat liver microsomes assessed compound remaining measured after 10 mins in presence of NADPH; assay type: ADME, Microsome; details: read-out: Stability
[8] = molecular target: T1, Alpha-2C adrenergic receptor (Homo sapiens, UniProt P18825); experiment: Inhibition of alpha 2C adrenergic receptor (unknown origin)
T1 sequence (P18825 whole entry): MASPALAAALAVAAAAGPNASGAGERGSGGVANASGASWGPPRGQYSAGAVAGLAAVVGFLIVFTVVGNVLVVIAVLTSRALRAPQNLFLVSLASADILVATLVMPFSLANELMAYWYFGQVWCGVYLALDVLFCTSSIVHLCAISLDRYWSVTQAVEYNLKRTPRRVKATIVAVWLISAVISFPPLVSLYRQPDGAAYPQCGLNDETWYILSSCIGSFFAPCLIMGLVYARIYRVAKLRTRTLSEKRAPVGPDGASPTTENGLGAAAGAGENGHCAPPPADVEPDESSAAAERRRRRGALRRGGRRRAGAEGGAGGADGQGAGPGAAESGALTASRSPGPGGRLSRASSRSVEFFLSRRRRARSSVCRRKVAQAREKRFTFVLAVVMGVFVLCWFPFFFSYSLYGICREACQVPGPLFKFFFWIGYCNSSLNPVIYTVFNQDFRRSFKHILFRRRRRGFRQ

Mu-type opioid receptor = Mu-type opioid receptor (Homo sapiens, UniProt P35372); experiment: Inhibition of mu opioid receptor (unknown origin)
D(2) dopamine receptor = D(2) dopamine receptor (Homo sapiens, UniProt P14416); experiment: Inhibition of dopamine D2 receptor (unknown origin)
[9] = molecular target: Kappa-type opioid receptor (Homo sapiens, UniProt P41145); experiment: Inhibition of kappa opioid receptor (unknown origin)
[10] = molecular target: T2, Muscarinic acetylcholine receptor M2 (Homo sapiens, UniProt P08172); experiment: Inhibition of M2 mAChR receptor (unknown origin)
T2 sequence (P08172 whole entry): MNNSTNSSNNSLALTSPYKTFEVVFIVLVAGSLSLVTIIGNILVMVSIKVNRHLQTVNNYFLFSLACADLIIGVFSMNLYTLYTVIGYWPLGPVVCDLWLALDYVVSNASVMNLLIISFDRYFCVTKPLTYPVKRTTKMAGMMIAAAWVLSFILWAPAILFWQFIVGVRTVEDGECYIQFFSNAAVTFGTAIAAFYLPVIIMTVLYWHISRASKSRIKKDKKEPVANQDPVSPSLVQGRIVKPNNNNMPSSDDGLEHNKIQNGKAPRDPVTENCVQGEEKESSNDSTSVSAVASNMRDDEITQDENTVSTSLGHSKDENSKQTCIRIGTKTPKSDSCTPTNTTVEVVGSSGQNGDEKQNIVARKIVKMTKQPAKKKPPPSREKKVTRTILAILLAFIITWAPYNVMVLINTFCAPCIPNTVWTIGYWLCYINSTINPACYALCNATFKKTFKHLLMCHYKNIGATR

[11] = molecular target: Neuronal acetylcholine receptor subunit alpha-7 (Homo sapiens, UniProt P36544); experiment: Inhibition of alpha7 nicotinic acetylcholine receptor (unknown origin)
[12] = molecular target: Voltage-gated inwardly rectifying potassium channel KCNH2 (Homo sapiens, UniProt Q12809); experiment: Inhibition of human ERG by [3H]]Astemizole binding assay; assay type: toxicity
[13] = molecular target: T3, Alpha-2A adrenergic receptor (Homo sapiens, UniProt P08913); experiment: Inhibition of alpha 2A adrenergic receptor (unknown origin)
T3 sequence (P08913 whole entry): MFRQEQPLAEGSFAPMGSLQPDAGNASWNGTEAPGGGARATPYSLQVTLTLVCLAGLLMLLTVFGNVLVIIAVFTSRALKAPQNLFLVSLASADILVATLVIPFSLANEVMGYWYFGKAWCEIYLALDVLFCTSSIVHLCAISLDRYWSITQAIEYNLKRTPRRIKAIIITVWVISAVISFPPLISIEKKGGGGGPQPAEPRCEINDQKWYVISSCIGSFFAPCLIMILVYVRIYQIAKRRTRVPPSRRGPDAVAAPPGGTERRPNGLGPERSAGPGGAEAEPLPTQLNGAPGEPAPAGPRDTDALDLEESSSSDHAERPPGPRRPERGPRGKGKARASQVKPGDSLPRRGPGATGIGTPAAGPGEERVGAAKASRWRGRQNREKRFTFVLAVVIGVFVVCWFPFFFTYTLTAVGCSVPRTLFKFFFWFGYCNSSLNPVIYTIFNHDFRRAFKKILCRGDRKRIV

Voltage-gated inwardly rectifying potassium channel KCNH2, sequence (Q12809 whole entry): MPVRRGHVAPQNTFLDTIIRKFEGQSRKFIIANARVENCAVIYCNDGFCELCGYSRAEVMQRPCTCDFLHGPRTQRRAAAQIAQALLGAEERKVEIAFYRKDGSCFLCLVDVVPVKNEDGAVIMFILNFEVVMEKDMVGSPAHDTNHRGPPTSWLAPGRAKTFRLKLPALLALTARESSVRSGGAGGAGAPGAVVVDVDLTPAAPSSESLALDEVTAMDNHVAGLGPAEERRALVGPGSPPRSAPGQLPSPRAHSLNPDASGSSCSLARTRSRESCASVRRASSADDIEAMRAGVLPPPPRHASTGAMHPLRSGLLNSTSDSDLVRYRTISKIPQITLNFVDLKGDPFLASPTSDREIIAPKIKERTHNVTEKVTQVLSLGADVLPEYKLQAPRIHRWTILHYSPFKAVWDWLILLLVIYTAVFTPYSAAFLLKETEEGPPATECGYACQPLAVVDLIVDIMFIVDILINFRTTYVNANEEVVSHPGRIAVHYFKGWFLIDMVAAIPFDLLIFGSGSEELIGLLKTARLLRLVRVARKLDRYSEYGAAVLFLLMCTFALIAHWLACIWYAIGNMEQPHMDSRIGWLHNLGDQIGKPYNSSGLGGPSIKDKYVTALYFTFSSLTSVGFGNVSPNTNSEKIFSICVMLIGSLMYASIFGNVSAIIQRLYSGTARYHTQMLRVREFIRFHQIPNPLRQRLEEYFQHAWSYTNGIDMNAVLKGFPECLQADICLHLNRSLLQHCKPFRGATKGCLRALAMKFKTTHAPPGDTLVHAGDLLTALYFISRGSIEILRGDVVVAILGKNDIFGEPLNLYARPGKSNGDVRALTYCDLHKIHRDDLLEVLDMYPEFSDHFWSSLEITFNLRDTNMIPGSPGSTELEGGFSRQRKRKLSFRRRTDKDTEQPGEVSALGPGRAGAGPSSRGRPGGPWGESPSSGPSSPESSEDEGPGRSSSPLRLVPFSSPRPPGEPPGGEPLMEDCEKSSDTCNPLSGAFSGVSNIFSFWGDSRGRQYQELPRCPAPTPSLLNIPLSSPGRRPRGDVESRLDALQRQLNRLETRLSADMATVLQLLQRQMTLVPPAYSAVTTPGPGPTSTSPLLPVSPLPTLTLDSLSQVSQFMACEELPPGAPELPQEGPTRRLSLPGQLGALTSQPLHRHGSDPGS
D(2) dopamine receptor, sequence (P14416 whole entry): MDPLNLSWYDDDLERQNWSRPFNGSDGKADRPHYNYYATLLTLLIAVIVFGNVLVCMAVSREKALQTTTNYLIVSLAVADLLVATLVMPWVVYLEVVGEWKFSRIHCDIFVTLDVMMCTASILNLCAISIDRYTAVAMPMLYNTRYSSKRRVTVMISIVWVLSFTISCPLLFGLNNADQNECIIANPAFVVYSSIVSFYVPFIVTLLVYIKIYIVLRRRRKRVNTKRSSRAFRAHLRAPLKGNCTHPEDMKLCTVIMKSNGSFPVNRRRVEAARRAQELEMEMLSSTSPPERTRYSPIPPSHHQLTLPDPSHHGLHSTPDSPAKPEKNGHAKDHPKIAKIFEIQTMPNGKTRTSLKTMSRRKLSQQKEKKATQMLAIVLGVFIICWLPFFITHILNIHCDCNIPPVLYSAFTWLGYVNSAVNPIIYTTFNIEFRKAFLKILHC
Mu-type opioid receptor, sequence (P35372 whole entry): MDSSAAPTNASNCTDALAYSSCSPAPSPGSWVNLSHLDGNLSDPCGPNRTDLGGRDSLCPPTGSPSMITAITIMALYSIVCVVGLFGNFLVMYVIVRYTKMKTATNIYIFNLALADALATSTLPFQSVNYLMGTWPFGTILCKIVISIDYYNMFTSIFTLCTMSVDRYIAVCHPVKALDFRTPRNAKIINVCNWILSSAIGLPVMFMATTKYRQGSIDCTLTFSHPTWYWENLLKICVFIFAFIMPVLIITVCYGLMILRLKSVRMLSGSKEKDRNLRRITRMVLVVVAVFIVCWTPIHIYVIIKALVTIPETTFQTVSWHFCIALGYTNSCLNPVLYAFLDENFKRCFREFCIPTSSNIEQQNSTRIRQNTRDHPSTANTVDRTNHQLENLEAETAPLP
Neuronal acetylcholine receptor subunit alpha-7, sequence (P36544 whole entry): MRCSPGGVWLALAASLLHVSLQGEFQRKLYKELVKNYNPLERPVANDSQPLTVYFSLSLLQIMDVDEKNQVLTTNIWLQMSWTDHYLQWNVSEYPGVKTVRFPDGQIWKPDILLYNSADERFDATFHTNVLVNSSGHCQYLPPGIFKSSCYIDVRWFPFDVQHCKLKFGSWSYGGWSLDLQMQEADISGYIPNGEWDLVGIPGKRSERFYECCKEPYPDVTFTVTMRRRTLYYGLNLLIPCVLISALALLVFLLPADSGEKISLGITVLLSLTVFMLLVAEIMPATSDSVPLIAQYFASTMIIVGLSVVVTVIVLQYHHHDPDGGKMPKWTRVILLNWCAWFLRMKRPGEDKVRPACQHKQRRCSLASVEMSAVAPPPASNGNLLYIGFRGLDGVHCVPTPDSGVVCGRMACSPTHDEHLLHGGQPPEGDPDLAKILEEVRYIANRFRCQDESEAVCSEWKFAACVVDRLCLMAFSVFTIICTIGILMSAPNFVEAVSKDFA
Cytochrome P450 2D6, sequence (P10635 whole entry): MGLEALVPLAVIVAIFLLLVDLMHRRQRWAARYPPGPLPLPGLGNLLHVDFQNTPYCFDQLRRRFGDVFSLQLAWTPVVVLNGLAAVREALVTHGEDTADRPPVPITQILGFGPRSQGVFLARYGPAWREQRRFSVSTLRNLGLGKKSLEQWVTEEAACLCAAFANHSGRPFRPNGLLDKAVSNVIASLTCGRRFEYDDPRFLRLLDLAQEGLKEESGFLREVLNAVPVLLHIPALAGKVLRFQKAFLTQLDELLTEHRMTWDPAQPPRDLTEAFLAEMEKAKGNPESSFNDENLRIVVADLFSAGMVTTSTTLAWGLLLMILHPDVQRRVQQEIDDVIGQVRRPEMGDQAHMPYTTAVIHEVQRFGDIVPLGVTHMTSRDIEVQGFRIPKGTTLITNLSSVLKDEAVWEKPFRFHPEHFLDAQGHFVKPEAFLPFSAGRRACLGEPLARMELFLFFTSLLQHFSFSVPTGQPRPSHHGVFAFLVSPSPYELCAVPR
Kappa-type opioid receptor, sequence (P41145 whole entry): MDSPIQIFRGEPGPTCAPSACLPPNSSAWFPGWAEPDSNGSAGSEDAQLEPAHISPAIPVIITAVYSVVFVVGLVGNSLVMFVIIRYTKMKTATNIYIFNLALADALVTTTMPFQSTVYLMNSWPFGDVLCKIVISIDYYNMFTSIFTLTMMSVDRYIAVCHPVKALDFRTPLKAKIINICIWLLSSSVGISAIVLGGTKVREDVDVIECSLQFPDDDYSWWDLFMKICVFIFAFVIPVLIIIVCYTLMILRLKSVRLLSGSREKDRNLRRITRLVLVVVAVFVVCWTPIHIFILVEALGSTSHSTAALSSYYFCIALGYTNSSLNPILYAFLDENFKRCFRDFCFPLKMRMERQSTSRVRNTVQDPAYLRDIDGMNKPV

| SMILES | remaining at 10 min [1] | pIC50 [2] | pIC50 (Cytochrome P450 2D6) | Papp at 4 h [3] | remaining at 10 min [4] | Papp at 4 h [5] | pIC50 [6] | remaining at 10 min [7] | pIC50 [8] | pIC50 (Mu-type opioid receptor) | pIC50 (D(2) dopamine receptor) | pIC50 [9] | pIC50 [10] | pIC50 [11] | pIC50 [12] | pIC50 [13] |
| --- | --- | --- | --- | --- | --- | --- | --- | --- | --- | --- | --- | --- | --- | --- | --- | --- |
| NC/C=C\CN(C[C@H]1Cc2ncccc2CN1)[C@H]1CCCc2cccnc21 | 85% | 6.74 | 4.89 | 2.8 ×10⁻⁶ cm/s | 37% | 6.8 ×10⁻⁶ cm/s | 7.59 | 11% |  |  |  |  |  |  |  |  |
| NC/C=C/CN(C[C@H]1Cc2ncccc2CN1)[C@H]1CCCc2cccnc21 | 85% | 4.55 | 6.15 | 0.2 ×10⁻⁶ cm/s | 37% | 1.5 ×10⁻⁶ cm/s | 6.82 | 11% |  |  |  |  |  |  |  |  |
| NCc1ccc(CN(C[C@H]2Cc3ncccc3CN2)[C@H]2CCCc3cccnc32)cc1 | 100% | 4.59 | 5.57 | 2 ×10⁻⁶ cm/s | 53% | 6.9 ×10⁻⁶ cm/s | 6.96 | 78% |  |  |  |  |  |  |  |  |
| c1cnc2c(c1)CN[C@@H](CN(CCCC1CCNCC1)[C@H]1CCCc3cccnc31)C2 | 100% | < 4.48 | < 4.70 | 1.4 ×10⁻⁶ cm/s | 69% | 2.4 ×10⁻⁶ cm/s | 7.46 | 40% | 5.66 | < 4.52 | 5.01 | 5.32 | < 4.52 | 4.77 | 5.03 |  |
| c1cnc2c(c1)CN[C@@H](CN(CCCCNC1CCOCC1)[C@H]1CCCc3cccnc31)C2 | 97% | < 4.77 | < 4.70 | 0.2 ×10⁻⁶ cm/s | 35% | 0.8 ×10⁻⁶ cm/s | 8.14 | 49% | < 4.52 | 4.70 | < 4.52 | 5.37 | < 4.52 | < 4.52 | < 4.30 | < 4.52 |
| NCCCCN(C[C@H]1Cc2ccccc2CN1)[C@H]1CCCc2cccnc21 |  | > 4.52 |  | 0.6 ×10⁻⁶ cm/s |  |  |  |  | 4.64 |  | 5.24 | 5.80 |  | < 4.52 |  |  |
| CN(C[C@@H]1Cc2ncccc2CN1)[C@H]1CCCc2cccnc21 | 100% | > 4.77 | 5.57 | 23 ×10⁻⁶ cm/s | 0% | 100 ×10⁻⁶ cm/s | < 4.48 | 1% |  |  |  |  |  |  |  |  |
| NCCCCN(C[C@@H]1Cc2cccnc2CN1)[C@H]1CCCc2cccnc21 | 92% |  | 5.36 |  | 25% | 7.7 ×10⁻⁶ cm/s | 6.66 | 37% |  |  |  |  |  |  |  |  |
| NCCCCN(C[C@H]1Cc2nccnc2CN1)[C@H]1CCCc2cccnc21 | 84% | > 4.48 | < 4.70 | 0.2 ×10⁻⁶ cm/s | 77% | 0.2 ×10⁻⁶ cm/s | 7.38 | 50% |  |  |  |  |  |  |  |  |
| CN(C[C@H]1Cc2ncccc2CN1)[C@H]1CCCc2cccnc21 | 95% | > 4.77 | 5.55 | 46 ×10⁻⁶ cm/s | 53% | 130 ×10⁻⁶ cm/s | 6.32 | 7% |  |  |  |  |  |  |  |  |
| CCN(CC)CCCCN(C[C@H]1Cc2ncccc2CN1)[C@H]1CCCc2cccnc21 | 80% | < 4.77 | 5.00 | 0.3 ×10⁻⁶ cm/s | 1% | 24 ×10⁻⁶ cm/s | 6.41 | 6% |  |  |  |  |  |  |  |  |
| NC(=O)NC/C=C/CN(C[C@H]1Cc2ncccc2CN1)[C@H]1CCCc2cccnc21 | 93% | < 4.77 | 4.74 | 0.6 ×10⁻⁶ cm/s | 19% | 0.2 ×10⁻⁶ cm/s | 6.37 | 1% |  |  |  |  |  |  |  |  |
| c1cnc2c(c1)CN[C@@H](CN(CCCCN(C1COC1)C1COC1)[C@H]1CCCc3cccnc31)C2 | 62% | < 4.48 | < 4.70 | 6.2 ×10⁻⁶ cm/s | 33% | 32 ×10⁻⁶ cm/s | 5.52 | 72% |  |  |  |  |  |  |  |  |
| NCCCCN(C[C@H]1Cc2ncccc2CN1)[C@H]1CCCc2cccnc21 | 100% |  | 4.92 | 1.7 ×10⁻⁶ cm/s | 86% | 1.4 ×10⁻⁶ cm/s | 7.96 | 64% | 4.89 | < 4.52 | 5.03 | 5.96 | 5.06 | 5.77 | 5.24 | 4.96 |
| FC1(F)CCC(NCCCCN(C[C@H]2Cc3ncccc3CN2)[C@H]2CCCc3cccnc32)CC1 | 88% | 4.51 | 4.82 |  | 47% | 5.2 ×10⁻⁶ cm/s | 7.54 | 10% |  |  |  |  |  |  |  |  |
| CN(C)CCCCN(C[C@H]1Cc2ncccc2CN1)[C@H]1CCCc2cccnc21 | 100% | < 4.77 | 5.00 | 0.2 ×10⁻⁶ cm/s | 55% | 24 ×10⁻⁶ cm/s | 6.57 | 27% |  |  |  |  |  |  |  |  |
| NC(=O)NCCCCN(C[C@H]1Cc2ncccc2CN1)[C@H]1CCCc2cccnc21 | 91% | < 4.77 | 4.89 | 0.7 ×10⁻⁶ cm/s | 32% | 0.2 ×10⁻⁶ cm/s | 6.03 | 1% |  |  |  |  |  |  |  |  |
| NCCCCN(C[C@@H]1Cc2nccnc2CN1)[C@H]1CCCc2cccnc21 | 87% |  | < 4.70 | 0.2 ×10⁻⁶ cm/s | 73% | 0.2 ×10⁻⁶ cm/s | 6.89 | 67% |  |  |  |  |  |  |  |  |
| NCCCCN(C[C@@H]1Cc2ncccc2CN1)[C@H]1CCCc2cccnc21 | 98% |  | 5.01 | 0.2 ×10⁻⁶ cm/s | 75% | 0.7 ×10⁻⁶ cm/s | 6.26 | 55% |  |  |  |  |  |  |  |  |
| NC(=O)NC/C=C\CN(C[C@H]1Cc2ncccc2CN1)[C@H]1CCCc2cccnc21 | 100% | < 4.77 | 4.70 | 0.5 ×10⁻⁶ cm/s | 10% | 0.2 ×10⁻⁶ cm/s | 6.34 | 1% |  |  |  |  |  |  |  |  |
| NCCCCN(C[C@H]1Cc2cccnc2CN1)[C@H]1CCCc2cccnc21 | 96% |  | 5.40 | 0.2 ×10⁻⁶ cm/s | 69% | 0.6 ×10⁻⁶ cm/s | 7.92 | 49% | 4.52 | < 4.52 | 5.00 | 5.40 | 4.52 |  | 5.27 | 5.89 |
